Source: patent publication EP4691468A1, “PHARMACEUTICAL COMPOSITION FOR TREATING INFLAMMATORY BOWEL DISEASE” (EA Pharma Co., Ltd., priority 2023, dated 2024)

Assay: Phase 1 single-dose administration study: plasma concentration of Compound (2) by LC/MS/MS
Conditions: for Average Plasma Concentrations of Compound (2) after Single-Dose Administration: oral; for Judgment Trough Value / Plasma Concentration Trough Value: Measured Value, Single, Once
Method: A phase 1 clinical trial was conducted to evaluate the safety, tolerability, and pharmacokinetics of Compound (1) when orally administered to healthy adult males.
This clinical trial was a single-center, randomized, double-blind, placebo-controlled, single and multiple ascending dose study with the primary objective of evaluating the safety and tolerability of Compound (1) when orally administered to healthy adult males.
The subjects in each cohort consisted of 8 people, of which 6 were assigned to Compound (1) and 2 were assigned to placebo, and they were administered the drug.
The plasma concentration of Compound (2) was measured using a validated measurement method. Specifically, plasma was separated from collected blood and processed, and then the plasma concentration was measured by an LC/MS/MS apparatus.
Compound (1) was orally administered once to 6 healthy adult males per dose and dosage form at doses of 6, 20, 100, 200, and 400 mg in the form of hard capsules (CAP), liquid self-emulsifying drug delivery system (L-SEDDS), or soft capsule self-emulsifying drug delivery system (C-SEDDS).

In the case of `Cc1cc(=O)n(-c2ccc(C[C@H](NC(=O)c3cc(F)c(NS(=O)(=O)c4ccc(NC(=O)C(C)(C)C)cc4)cc3F)C(=O)O)cn2)c(=O)n1C` [Compound (2)], the “Average Plasma Concentrations of Compound (2) after Single-Dose Administration” value (shortened to “Average Plasma Concentrations”) (Compound (1) 100 mg CAP, Time 7 h) was 1.498 ng/mL, the “Average Plasma Concentrations” value (Compound (1) 100 mg CAP, Time 8 h) was 1.357 ng/mL and the “Average Plasma Concentrations” value (Compound (1) 100 mg CAP, Time 12 h) was 1.276 ng/mL. The “Average Plasma Concentrations” value (Compound (1) 100 mg CAP, Time 15 h) was 1.135 ng/mL, the “Average Plasma Concentrations” value (Compound (1) 100 mg CAP, Time 21 h) was 1.046 ng/mL and the “Average Plasma Concentrations” value (Compound (1) 100 mg CAP, Time 24 h) was 1.030 ng/mL. The “Average Plasma Concentrations” value (Compound (1) 200 mg C-SEDDS, Time 0.5 h) was “Below quantitation limit”, the “Average Plasma Concentrations” value (Compound (1) 200 mg C-SEDDS, Time 1 h) was “Below quantitation limit” and the “Average Plasma Concentrations” value (Compound (1) 200 mg C-SEDDS, Time 1.5 h) was 2.14 ng/mL. For the same compound, the “Average Plasma Concentrations” value (Compound (1) 200 mg C-SEDDS, Time 2 h) was 6.68 ng/mL, the “Average Plasma Concentrations” value (Compound (1) 200 mg C-SEDDS, Time 2.5 h) was 10.5 ng/mL and the “Average Plasma Concentrations” value (Compound (1) 200 mg C-SEDDS, Time 3 h) was 13.4 ng/mL. For the same compound, the “Average Plasma Concentrations” value (Compound (1) 200 mg C-SEDDS, Time 4 h) was 14.2 ng/mL, the “Average Plasma Concentrations” value (Compound (1) 200 mg C-SEDDS, Time 5 h) was 10.4 ng/mL and the “Average Plasma Concentrations” value (Compound (1) 200 mg C-SEDDS, Time 6 h) was 5.91 ng/mL. For the same compound, the “Average Plasma Concentrations” value (Compound (1) 200 mg C-SEDDS, Time 7 h) was 3.46 ng/mL, the “Average Plasma Concentrations” value (Compound (1) 200 mg C-SEDDS, Time 8 h) was 3.33 ng/mL and the “Average Plasma Concentrations” value (Compound (1) 200 mg C-SEDDS, Time 12 h) was 2.48 ng/mL. For the same compound, the “Average Plasma Concentrations” value (Compound (1) 200 mg C-SEDDS, Time 15 h) was 2.14 ng/mL, the “Average Plasma Concentrations” value (Compound (1) 200 mg C-SEDDS, Time 21 h) was 1.85 ng/mL and the “Average Plasma Concentrations” value (Compound (1) 200 mg C-SEDDS, Time 24 h) was 1.69 ng/mL. For the same compound, the “Average Plasma Concentrations” value (Compound (1) 200 mg L-SEDDS, Time 0.5 h) was 4.28 ng/mL, the “Average Plasma Concentrations” value (Compound (1) 200 mg L-SEDDS, Time 1 h) was 11.5 ng/mL and the “Average Plasma Concentrations” value (Compound (1) 200 mg L-SEDDS, Time 1.5 h) was 14.2 ng/mL. For the same compound, the “Average Plasma Concentrations” value (Compound (1) 200 mg L-SEDDS, Time 2 h) was 13.5 ng/mL, the “Average Plasma Concentrations” value (Compound (1) 200 mg L-SEDDS, Time 2.5 h) was 13.0 ng/mL and the “Average Plasma Concentrations” value (Compound (1) 200 mg L-SEDDS, Time 3 h) was 10.9 ng/mL. The “Average Plasma Concentrations” value (Compound (1) 200 mg L-SEDDS, Time 4 h) was 9.50 ng/mL, the “Average Plasma Concentrations” value (Compound (1) 200 mg L-SEDDS, Time 5 h) was 6.46 ng/mL and the “Average Plasma Concentrations” value (Compound (1) 200 mg L-SEDDS, Time 6 h) was 3.97 ng/mL. For the same compound, the “Average Plasma Concentrations” value (Compound (1) 200 mg L-SEDDS, Time 7 h) was 2.89 ng/mL, the “Average Plasma Concentrations” value (Compound (1) 200 mg L-SEDDS, Time 8 h) was 2.54 ng/mL and the “Average Plasma Concentrations” value (Compound (1) 200 mg L-SEDDS, Time 12 h) was 2.07 ng/mL. For the same compound, the “Average Plasma Concentrations” value (Compound (1) 200 mg L-SEDDS, Time 15 h) was 2.00 ng/mL, the “Average Plasma Concentrations” value (Compound (1) 200 mg L-SEDDS, Time 21 h) was 2.11 ng/mL and the “Average Plasma Concentrations” value (Compound (1) 200 mg L-SEDDS, Time 24 h) was 2.25 ng/mL. For the same compound, the “Average Plasma Concentrations” value (Compound (1) 400 mg L-SEDDS, Time 0.5 h) was 8.84 ng/mL, the “Average Plasma Concentrations” value (Compound (1) 400 mg L-SEDDS, Time 1 h) was 36.7 ng/mL and the “Average Plasma Concentrations” value (Compound (1) 400 mg L-SEDDS, Time 1.5 h) was 45.6 ng/mL. For the same compound, the “Average Plasma Concentrations” value (Compound (1) 400 mg L-SEDDS, Time 2 h) was 45.0 ng/mL, the “Average Plasma Concentrations” value (Compound (1) 400 mg L-SEDDS, Time 2.5 h) was 40.1 ng/mL and the “Average Plasma Concentrations” value (Compound (1) 400 mg L-SEDDS, Time 3 h) was 31.8 ng/mL. The “Average Plasma Concentrations” value (Compound (1) 400 mg L-SEDDS, Time 4 h) was 22.6 ng/mL, the “Average Plasma Concentrations” value (Compound (1) 400 mg L-SEDDS, Time 5 h) was 14.3 ng/mL and the “Average Plasma Concentrations” value (Compound (1) 400 mg L-SEDDS, Time 6 h) was 8.41 ng/mL. The “Average Plasma Concentrations” value (Compound (1) 400 mg L-SEDDS, Time 7 h) was 6.54 ng/mL, the “Average Plasma Concentrations” value (Compound (1) 400 mg L-SEDDS, Time 8 h) was 4.76 ng/mL and the “Average Plasma Concentrations” value (Compound (1) 400 mg L-SEDDS, Time 12 h) was 4.34 ng/mL. The “Average Plasma Concentrations” value (Compound (1) 400 mg L-SEDDS, Time 15 h) was 3.90 ng/mL, the “Average Plasma Concentrations” value (Compound (1) 400 mg L-SEDDS, Time 21 h) was 3.98 ng/mL and the “Average Plasma Concentrations” value (Compound (1) 400 mg L-SEDDS, Time 24 h) was 3.79 ng/mL. The “Judgment Trough Value” (6/CAP) was “C (less than IC50 (1.9 ng/mL))”, the “Judgment Trough Value” (20/CAP) was “C (less than IC50 (1.9 ng/mL))” and the “Plasma Concentration Trough Value” (20/CAP) was 0.25 ng/mL. The “Judgment Trough Value” (100/CAP) was “C (less than IC50 (1.9 ng/mL))”, the “Plasma Concentration Trough Value” (100/CAP) was 1.03 ng/mL and the “Judgment Trough Value” (200/C-SEDDS) was “C (less than IC50 (1.9 ng/mL))”. The “Plasma Concentration Trough Value” (200/C-SEDDS) was 1.69 ng/mL, the “Judgment Trough Value” (200/L-SEDDS) was “B (IC50 (1.9 ng/mL) or higher and less than IC90 (6.9 ng/mL))” and the “Plasma Concentration Trough Value” (200/L-SEDDS) was 2.25 ng/mL. The “Judgment Trough Value” (400/L-SEDDS) was “B (IC50 (1.9 ng/mL) or higher and less than IC90 (6.9 ng/mL))”, the “Plasma Concentration Trough Value” (400/L-SEDDS) was 3.79 ng/mL and the “trough value resulting from C-SEDDS relative to the trough value resulting from L-SEDDS” value (single-dose administration, 200 mg) was “about 75%”.
